From patent US8710065B2, “Tricyclic inhibitors of kinases” (AbbVie Inc., priority 2011, dated 2014)

Molecular target: T1, GST-tagged-Wee1 kinase (Homo sapiens, UniProt P30291)
T1 construct: purchased Carnabio (Carna Biosciences) 05-177
Experiment: Wee1 time-resolved fluorescence equilibrium binding assay (displacement of Oregon Green-labeled ATP-competitive kinase probe)
Settings: read-out: Wee-1 inhibition (Ki)
How it was run: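 Time-resolved fluorescence equilibrium binding with GST-Wee1, measuring displacement of a rapidly reversible Oregon Green-labelled ATP-competitive probe by competitive inhibitors; values reported as Ki.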

T1 sequence (P30291 whole entry): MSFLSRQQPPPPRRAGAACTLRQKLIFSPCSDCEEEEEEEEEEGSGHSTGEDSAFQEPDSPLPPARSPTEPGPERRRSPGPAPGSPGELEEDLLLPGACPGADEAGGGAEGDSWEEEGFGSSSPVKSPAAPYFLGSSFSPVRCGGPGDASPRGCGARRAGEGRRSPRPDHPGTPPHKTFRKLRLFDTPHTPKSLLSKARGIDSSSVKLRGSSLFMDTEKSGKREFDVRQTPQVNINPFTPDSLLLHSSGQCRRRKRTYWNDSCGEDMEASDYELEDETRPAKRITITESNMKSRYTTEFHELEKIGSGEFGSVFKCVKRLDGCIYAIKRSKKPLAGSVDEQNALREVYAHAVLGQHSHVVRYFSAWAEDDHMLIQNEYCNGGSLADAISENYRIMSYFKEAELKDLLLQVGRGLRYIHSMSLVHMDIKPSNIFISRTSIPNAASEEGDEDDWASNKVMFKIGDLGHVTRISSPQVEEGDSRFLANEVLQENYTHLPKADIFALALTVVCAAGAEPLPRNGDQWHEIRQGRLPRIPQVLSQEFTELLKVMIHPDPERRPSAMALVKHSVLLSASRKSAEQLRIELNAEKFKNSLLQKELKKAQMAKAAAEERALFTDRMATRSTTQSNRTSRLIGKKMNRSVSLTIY

Ki [nM]	Compound
< 10	O=c1c2cnc(Nc3ccc4c(c3)CN(S(=O)(=O)C3CC3)CC43CC3)nc2n2ccnc2n1-c1c(Cl)cccc1Cl [Example 285, 2-{[2′-(cyclopropylsulfonyl)-2′,3′-dihydro-1′H-spiro[cyclopropane-1,4′-isoquinolin]-7′-yl]amino}-6-(2,6-dichlorophenyl)imidazo[1,2-a]pyrimido[5,4-e]pyrimidin-5(6H)-one]
< 10	CC(C)S(=O)(=O)N1Cc2cc(Nc3ncc4c(=O)n(-c5c(Cl)cccc5Cl)c5nccn5c4n3)ccc2C2(CC2)C1 [Example 286, 6-(2,6-dichlorophenyl)-2-{[2′-(propan-2-ylsulfonyl)-2′,3′-dihydro-1′H-spiro[cyclopropane-1,4′-isoquinolin]-7′-yl]amino}imidazo[1,2-a]pyrimido[5,4-e]pyrimidin-5(6H)-one]
< 10	CN1CCC(c2ccc(Nc3ncc4c(=O)n(-c5c(Cl)cccc5Cl)c5nccn5c4n3)cc2)CC1 [Example 287, 6-(2,6-dichlorophenyl)-2-{[4-(1-methylpiperidin-4-yl)phenyl]amino}imidazo[1,2-a]pyrimido[5,4-e]pyrimidin-5(6H)-one]
< 10	O=c1c2cnc(Nc3ccc(N4CCC5(CC4)CNC5)cc3)nc2n2ccnc2n1-c1c(Cl)cccc1Cl [Example 288, 2-{[4-(2,7-diazaspiro[3.5]non-7-yl)phenyl]amino}-6-(2,6-dichlorophenyl)imidazo[1,2-a]pyrimido[5,4-e]pyrimidin-5(6H)-one]
10 to 100	O=c1c2cnc(Nc3ccc(N4CCCC4C(F)(F)F)cc3)nc2n2ccnc2n1-c1ccccc1Cl (centres unmarked) [Example 289, 6-(2-chlorophenyl)-2-({4-[2-(trifluoromethyl)pyrrolidin-1-yl]phenyl}amino)imidazo[1,2-a]pyrimido[5,4-e]pyrimidin-5(6H)-one]
< 10	O=c1c2cnc(Nc3ccc(OC4CCNCC4)cc3)nc2n2ccnc2n1-c1ccccc1Cl [Example 290, 6-(2-chlorophenyl)-2-{[4-(piperidin-4-yloxy)phenyl]amino}imidazo[1,2-a]pyrimido[5,4-e]pyrimidin-5(6H)-one]
< 10	O=c1c2cnc(Nc3ccc(CC4CCNCC4)cc3)nc2n2ccnc2n1-c1ccccc1Cl [Example 291, 6-(2-chlorophenyl)-2-{[4-(piperidin-4-ylmethyl)phenyl]amino}imidazo[1,2-a]pyrimido[5,4-e]pyrimidin-5(6H)-one]
< 10	O=c1c2cnc(Nc3ccc(N4CC5CNCC5C4)cc3)nc2n2ccnc2n1-c1ccccc1Cl (centres unmarked) [Example 292, 6-(2-chlorophenyl)-2-{[4-(hexahydropyrrolo[3,4-c]pyrrol-2(1H)-yl)phenyl]amino}imidazo[1,2-a]pyrimido[5,4-e]pyrimidin-5(6H)-one]
10 to 100	CNS(=O)(=O)Cc1ccc(Nc2ncc3c(=O)n(-c4ccccc4Cl)c4nccn4c3n2)cc1 [Example 293, 1-(4-{[6-(2-chlorophenyl)-5-oxo-5,6-dihydroimidazo[1,2-a]pyrimido[5,4-e]pyrimidin-2-yl]amino}phenyl)-N-methylmethanesulfonamide]
10 to 100	CCN(CC)S(=O)(=O)c1ccc(Nc2ncc3c(=O)n(-c4ccccc4Cl)c4nccn4c3n2)cc1 [Example 294, 4-{[6-(2-chlorophenyl)-5-oxo-5,6-dihydroimidazo[1,2-a]pyrimido[5,4-e]pyrimidin-2-yl]amino}-N,N-diethylbenzenesulfonamide]
< 10	O=c1c2cnc(Nc3ccc4c(c3)CC(NC3CC3)C4)nc2n2ccnc2n1-c1c(Cl)cccc1Cl (centres unmarked) [Example 295, 2-{[2-(cyclopropylamino)-2,3-dihydro-1H-inden-5-yl]amino}-6-(2,6-dichlorophenyl)imidazo[1,2-a]pyrimido[5,4-e]pyrimidin-5(6H)-one]
< 10	O=c1c2cnc(Nc3ccc4c(c3)CC(NCCF)C4)nc2n2ccnc2n1-c1c(Cl)cccc1Cl (centres unmarked) [Example 296, 6-(2,6-dichlorophenyl)-2-({2-[(2-fluoroethyl)amino]-2,3-dihydro-1H-inden-5-yl}amino)imidazo[1,2-a]pyrimido[5,4-e]pyrimidin-5(6H)-one]
< 10	CCCNC1Cc2ccc(Nc3ncc4c(=O)n(-c5c(Cl)cccc5Cl)c5nccn5c4n3)cc2C1 (centres unmarked) [Example 297, 6-(2,6-dichlorophenyl)-2-{[2-(propylamino)-2,3-dihydro-1H-inden-5-yl]amino}imidazo[1,2-a]pyrimido[5,4-e]pyrimidin-5(6H)-one]
< 10	CC(=O)N1CC2(CCN(c3ccc(Nc4ncc5c(=O)n(-c6c(Cl)cccc6Cl)c6nccn6c5n4)cc3)CC2)C1 [Example 298, 2-{[4-(2-acetyl-2,7-diazaspiro[3.5]non-7-yl)phenyl]amino}-6-(2,6-dichlorophenyl)imidazo[1,2-a]pyrimido[5,4-e]pyrimidin-5(6H)-one]
< 10	CS(=O)(=O)N1CC2(CCN(c3ccc(Nc4ncc5c(=O)n(-c6c(Cl)cccc6Cl)c6nccn6c5n4)cc3)CC2)C1 [Example 299, 6-(2,6-dichlorophenyl)-2-({4-[2-(methylsulfonyl)-2,7-diazaspiro[3.5]non-7-yl]phenyl}amino)imidazo[1,2-a]pyrimido[5,4-e]pyrimidin-5(6H)-one]
< 10	CNC(=O)N1Cc2cc(Nc3ncc4c(=O)n(-c5c(F)cccc5Cl)c5nccn5c4n3)ccc2C2(CC2)C1 [Example 300, 7′-{[6-(2-chloro-6-fluorophenyl)-5-oxo-5,6-dihydroimidazo[1,2-a]pyrimido[5,4-e]pyrimidin-2-yl]amino}-N-methyl-1′H-spiro[cyclopropane-1,4′-isoquinoline]-2′(3′H)-carboxamide]
< 10	CC(C)NC(=O)N1Cc2cc(Nc3ncc4c(=O)n(-c5c(F)cccc5Cl)c5nccn5c4n3)ccc2C2(CC2)C1 [Example 301, 7′-{[6-(2-chloro-6-fluorophenyl)-5-oxo-5,6-dihydroimidazo[1,2-a]pyrimido[5,4-e]pyrimidin-2-yl]amino}-N-(propan-2-yl)-1′H-spiro[cyclopropane-1,4′-isoquinoline]-2′(3′H)-carboxamide]
< 10	CC1(C)CN(CCF)Cc2cc(Nc3ncc4c(=O)n(-c5c(Cl)cccc5Cl)c5nccn5c4n3)ccc21 [Example 302, 6-(2,6-dichlorophenyl)-2-{[2-(2-fluoroethyl)-4,4-dimethyl-1,2,3,4-tetrahydroisoquinolin-7-yl]amino}imidazo[1,2-a]pyrimido[5,4-e]pyrimidin-5(6H)-one]
< 10	CS(=O)(=O)N1CC2(CN(c3ccc(Nc4ncc5c(=O)n(-c6c(Cl)cccc6Cl)c6nccn6c5n4)cc3)C2)C1 [Example 303, 6-(2,6-dichlorophenyl)-2-({4-[6-(methylsulfonyl)-2,6-diazaspiro[3.3]hept-2-yl]phenyl}amino)imidazo[1,2-a]pyrimido[5,4-e]pyrimidin-5(6H)-one]
< 10	O=c1c2cnc(Nc3ccc(N4CC5(CNC5)C4)cc3)nc2n2ccnc2n1-c1c(Cl)cccc1Cl [Example 304, 2-{[4-(2,6-diazaspiro[3.3]hept-2-yl)phenyl]amino}-6-(2,6-dichlorophenyl)imidazo[1,2-a]pyrimido[5,4-e]pyrimidin-5(6H)-one]
< 10	O=c1c2cnc(Nc3ccc4c(c3)CC(N3CCCC3)C4)nc2n2ccnc2n1-c1c(Cl)cccc1Cl (centres unmarked) [Example 305, 6-(2,6-dichlorophenyl)-2-{[2-(pyrrolidin-1-yl)-2,3-dihydro-1H-inden-5-yl]amino}imidazo[1,2-a]pyrimido[5,4-e]pyrimidin-5(6H)-one]
< 10	O=c1c2cnc(Nc3ccc4c(c3)CC(N3CC[C@H](F)C3)C4)nc2n2ccnc2n1-c1c(Cl)cccc1Cl (stereo partly drawn) [Example 306, 6-(2,6-dichlorophenyl)-2-({2-[(3S)-3-fluoropyrrolidin-1-yl]-2,3-dihydro-1H-inden-5-yl}amino)imidazo[1,2-a]pyrimido[5,4-e]pyrimidin-5(6H)-one]
< 10	CC1(C)CNCc2cc(Nc3ncc4c(=O)n(-c5c(Cl)cccc5Cl)c5nccn5c4n3)ccc21 [Example 307, 6-(2,6-dichlorophenyl)-2-[(4,4-dimethyl-1,2,3,4-tetrahydroisoquinolin-7-yl)amino]imidazo[1,2-a]pyrimido[5,4-e]pyrimidin-5(6H)-one]
< 10	O=c1c2cnc(Nc3ccc(NC4CCNCC4)cc3)nc2n2ccnc2n1-c1c(Cl)cccc1Cl [Example 308, 6-(2,6-dichlorophenyl)-2-{[4-(piperidin-4-ylamino)phenyl]amino}imidazo[1,2-a]pyrimido[5,4-e]pyrimidin-5(6H)-one]
< 10	CN1CCC(c2ccc(Nc3ncc4c(=O)n(-c5c(F)cccc5Cl)c5nccn5c4n3)cc2)CC1 [Example 309, 6-(2-chloro-6-fluorophenyl)-2-{[4-(1-methylpiperidin-4-yl)phenyl]amino}imidazo[1,2-a]pyrimido[5,4-e]pyrimidin-5(6H)-one]
< 10	CC(=O)N1Cc2cc(Nc3ncc4c(=O)n(-c5c(F)cccc5Cl)c5nccn5c4n3)ccc2C(C)(C)C1 [Example 310, 2-[(2-acetyl-4,4-dimethyl-1,2,3,4-tetrahydroisoquinolin-7-yl)amino]-6-(2-chloro-6-fluorophenyl)imidazo[1,2-a]pyrimido[5,4-e]pyrimidin-5(6H)-one]
< 10	CC1(C)CN(C(=O)C2CC2)Cc2cc(Nc3ncc4c(=O)n(-c5c(F)cccc5Cl)c5nccn5c4n3)ccc21 [Example 311, 6-(2-chloro-6-fluorophenyl)-2-{[2-(cyclopropylcarbonyl)-4,4-dimethyl-1,2,3,4-tetrahydroisoquinolin-7-yl]amino}imidazo[1,2-a]pyrimido[5,4-e]pyrimidin-5(6H)-one]
< 10	CC1(C)CN(S(C)(=O)=O)Cc2cc(Nc3ncc4c(=O)n(-c5c(F)cccc5Cl)c5nccn5c4n3)ccc21 [Example 312, 6-(2-chloro-6-fluorophenyl)-2-{[4,4-dimethyl-2-(methylsulfonyl)-1,2,3,4-tetrahydroisoquinolin-7-yl]amino}imidazo[1,2-a]pyrimido[5,4-e]pyrimidin-5(6H)-one]
< 10	O=c1c2cnc(Nc3ccc(N4CC5(CCNC5)C4)cc3)nc2n2ccnc2n1-c1c(Cl)cccc1Cl [Example 313, 2-{[4-(2,6-diazaspiro[3.4]oct-2-yl)phenyl]amino}-6-(2,6-dichlorophenyl)imidazo[1,2-a]pyrimido[5,4-e]pyrimidin-5(6H)-one]
